The numbers were not newly measured in patent publication US20210315817A1, “C[…] SELF-EMULSION SYSTEMS FOR INFUSED COMPOSITIONS” (HEXO […]., priority 2018, published 2021), which cites them from elsewhere.

The conditions of the data set: individual emulsifier HLB value.

In the case of “polyoxyethylene sorbitan monolaurate [Tween ® 20]”, the “Emuls. HLB” value was 16.7.
